Laboratory results from article PMC12865225 (Clinical and Translational Science, 2026).

Key:
BCRP = biological target: T1, BCRP (Homo sapiens, UniProt Q9UNQ0); test: Efflux transport assay in BCRP HEK293 membrane vesicles; type: biochemical; conditions: 5 and 50 µM
T1 construct: made in house; host or cells: membrane vesicles from HEK293 cells expressing the transporter
T1 sequence (Q9UNQ0 1-655): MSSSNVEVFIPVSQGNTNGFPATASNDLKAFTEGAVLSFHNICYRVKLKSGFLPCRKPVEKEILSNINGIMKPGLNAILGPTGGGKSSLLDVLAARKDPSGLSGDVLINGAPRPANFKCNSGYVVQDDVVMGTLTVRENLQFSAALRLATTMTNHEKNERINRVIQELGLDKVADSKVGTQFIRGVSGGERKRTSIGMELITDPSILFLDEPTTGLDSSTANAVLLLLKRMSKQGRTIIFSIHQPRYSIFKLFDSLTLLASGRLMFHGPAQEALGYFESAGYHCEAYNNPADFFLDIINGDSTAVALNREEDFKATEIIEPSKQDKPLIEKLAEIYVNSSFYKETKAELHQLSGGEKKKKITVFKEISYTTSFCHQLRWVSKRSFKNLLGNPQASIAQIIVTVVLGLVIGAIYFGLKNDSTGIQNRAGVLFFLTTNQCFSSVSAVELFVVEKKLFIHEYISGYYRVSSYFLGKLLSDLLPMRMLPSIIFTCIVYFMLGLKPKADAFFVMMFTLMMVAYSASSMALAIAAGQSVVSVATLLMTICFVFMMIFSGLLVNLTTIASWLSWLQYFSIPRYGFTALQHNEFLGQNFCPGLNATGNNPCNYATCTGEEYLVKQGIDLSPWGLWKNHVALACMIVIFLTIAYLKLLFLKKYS
Protocol: Membrane vesicles, 5 μL (7.5 μg of total protein), prepared as previously reported, were aliquoted to wells of a conical‐shaped 96‐well plate. The plate was incubated for 10 min at +37°C before the initiation of transport by adding 25 μL of TS‐buffer (10 mM Tris, 250 mM sucrose, pH adjusted to 7.4 with HEPES) containing magnesium chloride (10 mM final in the reaction), adenosine triphosphate (ATP) or adenosine monophosphate (AMP), 4 mM final in the reaction, and the transporter substrate and inhibitor. Each experiment included triplicate samples for both ATP and AMP samples. The concentrations of rosuvastatin and N‐methyl‐quinidine were 1 μM in the BCRP and P‐gp vesicle inhibition assays, respectively. […] The transport reactions were quenched by adding 200 μL of cold TS‐buffer to each well and transferring the samples to a 96‐multiwell 1.0 μm glass fiber filter plate (Merck Millipore, Darmstadt, Germany) kept under vacuum. Wells were further washed four times with cold TS‐buffer, after which the plate was dried under vacuum. The compounds were eluted from the plate by applying 100 μL of 75% methanol containing 0.1% formic acid to each well and incubating at 250 RPM for 30 min before centrifuging the samples to an analysis plate at 2800 g for 2 min. For the rosuvastatin samples, the elution solvent contained rosuvastin‐d6 as the internal standard. […]

OATP1B3 = biological target: T2, OATP1B3 (Homo sapiens, UniProt Q9NPD5); test: Uptake transport assay in OATP1B3-expressing HEK293 cells; type: cell-based; conditions: for transport by OATP1B3: 2 and 50 μM, 10 min; for Km at 2 min: human, HEK293 cells transiently expressing OATP1B3, pH 7.4, uptake; for Km / Vmax (pmol/106 cells/min) OATP1B3: uptake; for Km at 2 min / Km / Vmax (pmol/106 cells/min) OATP1B3: 2 min
T2 construct: expressed in transfected cells; host or cells: HEK293 (recombinant baculovirus-mediated transduction)
T2 sequence (Q9NPD5 1-702): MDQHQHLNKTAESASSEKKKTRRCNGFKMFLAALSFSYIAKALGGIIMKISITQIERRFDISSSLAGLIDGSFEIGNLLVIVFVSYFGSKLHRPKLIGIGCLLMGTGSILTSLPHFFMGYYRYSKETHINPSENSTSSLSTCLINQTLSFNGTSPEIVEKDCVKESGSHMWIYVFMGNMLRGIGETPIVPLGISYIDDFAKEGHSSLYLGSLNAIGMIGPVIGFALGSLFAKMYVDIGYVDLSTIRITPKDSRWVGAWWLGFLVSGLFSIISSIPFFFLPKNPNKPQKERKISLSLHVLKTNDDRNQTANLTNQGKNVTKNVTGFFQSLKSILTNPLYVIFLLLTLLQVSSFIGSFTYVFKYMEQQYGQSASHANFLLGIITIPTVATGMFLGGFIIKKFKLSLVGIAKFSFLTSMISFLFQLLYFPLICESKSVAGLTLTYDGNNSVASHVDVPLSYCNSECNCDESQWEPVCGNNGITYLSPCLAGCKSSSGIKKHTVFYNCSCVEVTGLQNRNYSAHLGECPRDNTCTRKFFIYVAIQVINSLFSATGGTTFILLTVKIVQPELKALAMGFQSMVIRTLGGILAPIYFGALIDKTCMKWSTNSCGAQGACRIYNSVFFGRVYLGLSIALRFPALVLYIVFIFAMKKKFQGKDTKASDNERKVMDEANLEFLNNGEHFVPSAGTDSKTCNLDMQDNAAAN
Protocol: The human transporters OATP1B1, OATP1B3, OATP2B1, and OAT1‐OAT4 and a negative control protein (enhanced yellow fluorescent protein, eYFP) were transiently expressed in human embryonic kidney 293 (HEK293) cells by recombinant baculovirus‐mediated transduction. Baculoviruses carrying human genes for the transporters were prepared as reported previously. HEK293 cells were cultured in DMEM containing 10% fetal bovine serum at 37°C and 5% CO2 and passaged two to three times per week. For the transport studies, 0.05 × 10^6 cells for 48‐well plates (OATPs) or 0.06 × 10^6 cells for 24‐well plates (OATs) were seeded onto cell‐culture treated well plates coated with poly‐D‐lysine. After 1 day, cells were transduced to produce recombinant proteins by changing media to DMEM containing 30 μL (48‐well plates) or 60 μL (24‐well plates) of recombinant baculovirus and 3 mM (OATs) or 5 mM (OATPs) sodium butyrate in a total media volume of 500 μL. The cells were cultured for a further 2 days before the transport assays.
For the transport studies, media were removed and cells were washed once with warm transport uptake buffer (TP‐buffer—pH 7.4 HBSS with 25 mM HEPES and 4 mM sodium bicarbonate). Each experiment included triplicate (OATP) or duplicate (OAT) samples for every test condition. The uptake was started by removing liquid from wells and applying warm TP‐buffer (200 μL for 24‐well plates or 125 μL for 48‐well plates) containing a test compound to cells. Transport assays were terminated after a pre‐specified incubation time (reported in figure legends) by removing substrate solution and washing cells three times with cold TP‐buffer (300 μL for 48‐well plates and 400 μL for 24‐well plates). For the liquid chromatography mass spectrometry (LC–MS) analysis, compounds were extracted from cells with 125 μL (48‐well plates) or 250 μL (24‐well plates) of an ultrapure‐water solution containing 75% methanol and 0.1% formic acid, shaking at 250 RPM for 30 min. […] Samples were transferred to well plates, centrifuged at 3000 g for 30 min, and transferred to a new well plate for the analysis.
Equation (2) (the Michaelis–Menten equation) was fit to the transport kinetic assay data. […] (2) Uptake=Vmax×S/Km+S

| Structure (SMILES) | transport by BCRP (BCRP) | transport by OATP1B3 (OATP1B3) | Km at 2 min (OATP1B3) | Km (OATP1B3) | Vmax (pmol/106 cells/min) OATP1B3 (OATP1B3) |
| --- | --- | --- | --- | --- | --- |
| Cc1onc(-c2c(Cl)cccc2Cl)c1C(=O)N[C@@H]1C(=O)N2[C@@H]1SC(C)(C)[C@@H]2C(=O)O [Dicloxacillin] | did not transport | transported | 2.81 µM | 3 µM | 2.69 pmol/106 cells/min |
| Cc1onc(-c2c(F)cccc2Cl)c1C(=O)N[C@@H]1C(=O)N2[C@@H]1SC(C)(C)[C@@H]2C(=O)O [Flucloxacillin] | did not transport | transported | 18.3 µM | 10 to 18 µM | 6.02 pmol/106 cells/min |
